Among the data in ChEMBL document CHEMBL1909046, “DrugMatrix in vitro pharmacology data” are IC50 and Ki values, retold here.

Where a SMILES comes first, the peptide text is derived from it. Bridges are numbered along the chain shown (N, C = ends). [ ]: non-standard residue; d: D form. The star is where a group is joined. Threoninol(2S,3R) = C[C@@H](O)[C@H](CO)N*

In one test the target is T1, Thromboxane-A synthase (Homo sapiens, UniProt P24557).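 Also: enzyme inhibition assay with PGH2 supplied as substrate; in other assays of this panel Not Active means under 50% inhibition at 10 µM.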
T1 sequence (P24557 whole entry): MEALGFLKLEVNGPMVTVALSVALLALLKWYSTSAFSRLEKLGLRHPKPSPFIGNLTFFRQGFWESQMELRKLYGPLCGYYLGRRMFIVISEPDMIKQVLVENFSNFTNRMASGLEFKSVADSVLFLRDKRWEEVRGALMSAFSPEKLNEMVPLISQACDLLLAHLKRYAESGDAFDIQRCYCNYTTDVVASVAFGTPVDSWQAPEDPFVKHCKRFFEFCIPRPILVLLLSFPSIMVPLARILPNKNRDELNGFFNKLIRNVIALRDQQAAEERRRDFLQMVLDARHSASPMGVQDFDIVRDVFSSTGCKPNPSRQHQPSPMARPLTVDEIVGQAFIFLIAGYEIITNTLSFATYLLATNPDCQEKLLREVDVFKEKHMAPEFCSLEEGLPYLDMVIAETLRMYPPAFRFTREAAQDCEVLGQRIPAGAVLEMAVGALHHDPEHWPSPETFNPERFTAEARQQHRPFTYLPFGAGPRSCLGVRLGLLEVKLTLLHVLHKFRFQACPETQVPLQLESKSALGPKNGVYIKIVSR
The test is described as follows: biochemical. The class given is tissue-based, Platelet. The settings on record: platelet.

The next test has as its target D(1A) dopamine receptor (Homo sapiens, UniProt P21728). The test can be described thus: DRUGMATRIX: Dopamine D1 radioligand binding (ligand: [3H] SCH-23390). The note with it: cho; Not Active = under 50% inhibition at 10 µM. The class given is cell membranes, Membrane.
Another test has as its target D(3) dopamine receptor (Homo sapiens, UniProt P35462). The test is described as follows: DRUGMATRIX: Dopamine D3 radioligand binding (ligand: [3H] Spiperone). Type of test: cell membranes, CHO, Membrane.
Test [1] deals with Sodium-dependent dopamine transporter (Homo sapiens, UniProt Q01959). The test can be described thus: DRUGMATRIX: Dopamine Transporter radioligand binding (ligand: [125I] RTI-55). The settings on record: Not Active = under 50% inhibition at 10 µM. Type of test: cell membranes, CHO-K1, Membrane.
The target in another test is T2, Leukotriene C4 synthase (Cavia porcellus, UniProt A6XA80).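 Also: enzyme inhibition assay of leukotriene C4 synthase, using LTA4 as the substrate; in other assays of this panel Not Active means under 50% inhibition at 10 µM.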
T2 sequence (A6XA80 whole entry): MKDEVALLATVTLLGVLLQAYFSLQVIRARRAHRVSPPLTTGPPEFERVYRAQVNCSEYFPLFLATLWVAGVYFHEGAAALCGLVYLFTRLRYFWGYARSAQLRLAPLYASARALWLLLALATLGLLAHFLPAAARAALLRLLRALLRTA
Type of test: tissue-based, Lung.

The target in test [2] is Mitogen-activated protein kinase 1 (Homo sapiens, UniProt P28482). The test can be described thus: DRUGMATRIX: Protein Serine/Threonine Kinase, ERK2 enzyme inhibition (substrate: Myelin Basic Protein). The arrangement: species or system Escherichia coli. The settings on record: Not Active = under 50% inhibition at 10 µM.
In a further test the target is T3, Glucocorticoid receptor (Homo sapiens, UniProt P04150). Also: in other assays of this panel Not Active means under 50% inhibition at 10 µM.
T3 sequence (P04150 whole entry): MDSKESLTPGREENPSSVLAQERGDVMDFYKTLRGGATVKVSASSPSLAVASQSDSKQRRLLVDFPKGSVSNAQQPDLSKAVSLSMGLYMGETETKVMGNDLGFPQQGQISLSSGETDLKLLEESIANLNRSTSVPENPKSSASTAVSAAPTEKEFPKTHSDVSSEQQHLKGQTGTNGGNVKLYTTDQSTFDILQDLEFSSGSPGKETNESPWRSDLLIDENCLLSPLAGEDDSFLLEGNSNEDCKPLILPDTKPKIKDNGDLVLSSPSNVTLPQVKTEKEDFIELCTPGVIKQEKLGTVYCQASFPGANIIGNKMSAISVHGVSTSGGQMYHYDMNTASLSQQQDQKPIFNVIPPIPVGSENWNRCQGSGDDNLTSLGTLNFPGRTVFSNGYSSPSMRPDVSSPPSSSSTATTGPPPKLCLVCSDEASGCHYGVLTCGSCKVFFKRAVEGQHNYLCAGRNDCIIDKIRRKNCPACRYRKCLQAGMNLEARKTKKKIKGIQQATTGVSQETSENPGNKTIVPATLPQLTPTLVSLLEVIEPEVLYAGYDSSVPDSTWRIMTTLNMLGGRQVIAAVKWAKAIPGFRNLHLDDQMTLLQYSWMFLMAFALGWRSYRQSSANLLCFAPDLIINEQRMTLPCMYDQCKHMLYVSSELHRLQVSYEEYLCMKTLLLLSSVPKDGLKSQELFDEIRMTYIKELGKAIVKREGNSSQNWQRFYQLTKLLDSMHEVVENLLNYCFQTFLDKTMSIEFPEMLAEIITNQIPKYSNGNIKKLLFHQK
The note with it: hela s3.

D(1A) dopamine receptor, sequence (P21728 whole entry): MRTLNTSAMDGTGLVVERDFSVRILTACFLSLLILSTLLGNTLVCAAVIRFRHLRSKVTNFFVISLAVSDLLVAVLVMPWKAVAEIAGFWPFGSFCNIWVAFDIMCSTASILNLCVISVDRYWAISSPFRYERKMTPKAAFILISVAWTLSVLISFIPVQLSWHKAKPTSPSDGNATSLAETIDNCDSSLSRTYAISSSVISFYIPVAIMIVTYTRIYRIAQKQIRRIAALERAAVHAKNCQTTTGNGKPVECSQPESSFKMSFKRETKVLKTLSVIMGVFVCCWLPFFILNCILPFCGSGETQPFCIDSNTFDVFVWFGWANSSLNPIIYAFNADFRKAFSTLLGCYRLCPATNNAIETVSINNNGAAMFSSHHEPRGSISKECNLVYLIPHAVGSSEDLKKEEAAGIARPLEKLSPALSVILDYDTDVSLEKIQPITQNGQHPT
Sodium-dependent dopamine transporter, sequence (Q01959 whole entry): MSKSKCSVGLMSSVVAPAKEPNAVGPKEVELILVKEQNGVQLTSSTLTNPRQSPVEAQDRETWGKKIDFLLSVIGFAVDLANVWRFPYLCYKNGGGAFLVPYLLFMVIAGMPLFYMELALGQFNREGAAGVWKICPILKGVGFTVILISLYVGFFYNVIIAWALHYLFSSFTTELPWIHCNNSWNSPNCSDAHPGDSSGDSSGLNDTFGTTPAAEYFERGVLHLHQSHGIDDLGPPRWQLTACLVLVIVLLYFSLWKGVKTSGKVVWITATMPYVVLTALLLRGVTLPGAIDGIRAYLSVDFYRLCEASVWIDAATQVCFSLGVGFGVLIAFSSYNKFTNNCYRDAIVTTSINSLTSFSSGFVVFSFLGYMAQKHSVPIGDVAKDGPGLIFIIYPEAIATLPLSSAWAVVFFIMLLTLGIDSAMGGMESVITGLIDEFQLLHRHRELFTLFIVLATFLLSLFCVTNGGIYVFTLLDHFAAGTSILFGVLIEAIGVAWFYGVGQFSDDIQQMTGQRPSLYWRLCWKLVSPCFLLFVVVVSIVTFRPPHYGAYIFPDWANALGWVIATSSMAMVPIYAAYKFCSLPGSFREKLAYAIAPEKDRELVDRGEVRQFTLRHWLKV
Mitogen-activated protein kinase 1, sequence (P28482 whole entry): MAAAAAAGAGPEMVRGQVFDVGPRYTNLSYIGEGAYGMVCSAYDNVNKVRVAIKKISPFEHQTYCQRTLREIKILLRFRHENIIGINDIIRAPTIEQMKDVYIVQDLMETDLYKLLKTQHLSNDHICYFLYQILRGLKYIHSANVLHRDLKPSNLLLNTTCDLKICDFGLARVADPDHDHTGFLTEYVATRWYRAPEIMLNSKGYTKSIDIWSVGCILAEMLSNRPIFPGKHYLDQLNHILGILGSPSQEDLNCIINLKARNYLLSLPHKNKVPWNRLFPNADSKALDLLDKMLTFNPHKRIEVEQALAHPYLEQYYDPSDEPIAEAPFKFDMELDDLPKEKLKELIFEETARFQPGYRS
D(3) dopamine receptor, sequence (P35462 whole entry): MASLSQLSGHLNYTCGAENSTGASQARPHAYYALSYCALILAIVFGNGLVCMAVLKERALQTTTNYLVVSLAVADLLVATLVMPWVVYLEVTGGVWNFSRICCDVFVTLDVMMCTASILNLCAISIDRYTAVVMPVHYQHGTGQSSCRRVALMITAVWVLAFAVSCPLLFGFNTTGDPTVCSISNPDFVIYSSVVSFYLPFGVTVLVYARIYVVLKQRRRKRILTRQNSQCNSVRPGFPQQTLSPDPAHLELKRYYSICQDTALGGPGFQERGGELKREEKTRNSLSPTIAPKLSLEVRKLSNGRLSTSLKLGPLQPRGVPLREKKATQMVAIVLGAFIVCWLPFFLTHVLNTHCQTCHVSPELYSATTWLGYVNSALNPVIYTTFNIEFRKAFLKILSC

Take `COc1ccccc1C(=O)N1CCC(Cc2ccccc2)CC1`: the half-maximal inhibitory concentration (IC50) entry (at Thromboxane-A synthase; at D(1A) dopamine receptor; on D(3) dopamine receptor (cho); in test [1] (cho-k1); on Leukotriene C4 synthase; in test [2]) was “Not Active” throughout. Moreover, at Glucocorticoid receptor, the IC50 result is listed as “Not Active”.
Consider `Cc1ccccc1C(=O)N1CCC(Cc2ccccc2)CC1`, for which the concentration for half-maximal inhibition (IC50) entry (against Thromboxane-A synthase; at D(1A) dopamine receptor; on D(3) dopamine receptor (cho); in test [1] (cho-k1); on Leukotriene C4 synthase; in test [2]) was “Not Active” throughout. For the same compound, on Glucocorticoid receptor, the IC50 result is recorded as “Not Active”.
As for `O=C1CC[C@H](N2C(=O)c3ccccc3C2=O)C(=O)N1`, the concentration for half-maximal inhibition (IC50) entry (on Thromboxane-A synthase; at D(1A) dopamine receptor; at D(3) dopamine receptor (cho); in test [1] (cho-k1); against Leukotriene C4 synthase; in test [2]) was “Not Active” in each case. The IC50 result at Glucocorticoid receptor is reported as “Not Active”.
Turning to `N=C(Nc1ccccc1)Nc1ccccc1`, the IC50 result (against Thromboxane-A synthase; on D(1A) dopamine receptor; at D(3) dopamine receptor (cho); in test [1] (cho-k1); at Leukotriene C4 synthase; in test [2]) was “Not Active” each time. For the same compound, at Glucocorticoid receptor, the IC50 entry is on record as “Not Active”.
Take `C[C@@H](O)[C@H](CO)NC(=O)[C@@H]1CSSC[C@H](NC(=O)[C@H](N)Cc2ccccc2)C(=O)N[C@@H](Cc2ccccc2)C(=O)N[C@H](Cc2c[nH]c3ccccc23)C(=O)N[C@@H](CCCCN)C(=O)N[C@@H]([C@@H](C)O)C(=O)N1` (H-[dF]CF[dW]KTC-{Threoninol(2S,3R)}; disulfide 2-7): the 50% inhibitory concentration (IC50) result (against Thromboxane-A synthase; on D(1A) dopamine receptor; on D(3) dopamine receptor (cho); in test [1] (cho-k1); on Leukotriene C4 synthase; in test [2]) was “Not Active” each time. Moreover, the IC50 result against Glucocorticoid receptor was “Not Active”.
In the case of `C[C@](O)(CS(=O)(=O)c1ccc(F)cc1)C(=O)Nc1ccc(C#N)c(C(F)(F)F)c1` [(R)-BICALUTAMIDE], the 50% inhibitory concentration (IC50) result (at Thromboxane-A synthase; on D(1A) dopamine receptor; at D(3) dopamine receptor (cho); in test [1] (cho-k1); against Leukotriene C4 synthase; in test [2]) was “Not Active” each time. The IC50 entry against Glucocorticoid receptor is listed as “Not Active”.
For `CCCC(=O)Nc1ccc(OCC(O)CNC(C)C)c(C(C)=O)c1` (configuration not stated) [ACEBUTOLOL], the half-inhibitory concentration (IC50) result (against Thromboxane-A synthase; at D(1A) dopamine receptor; at D(3) dopamine receptor (cho); in test [1] (cho-k1); against Leukotriene C4 synthase; in test [2]) was “Not Active” in each case. The IC50 entry against Glucocorticoid receptor was “Not Active”.
`COc1cc2c(c3oc(=O)c4c(c13)CCC4=O)[C@@H]1C=CO[C@@H]1O2` [AFLATOXIN]: the IC50 result (on Thromboxane-A synthase; at D(1A) dopamine receptor; at D(3) dopamine receptor (cho); in test [1] (cho-k1); at Leukotriene C4 synthase; in test [2]) was “Not Active” in each case. Moreover, the IC50 entry against Glucocorticoid receptor is given as “Not Active”. In addition, the inhibition constant (Ki) result (at Thromboxane-A synthase; at D(1A) dopamine receptor; at D(3) dopamine receptor (cho); in test [1] (cho-k1); on Leukotriene C4 synthase; in test [2]) was “Not Active” each time. In addition, the inhibition constant (Ki) result at Glucocorticoid receptor is on record as “Not Active”.
Consider `CN(C)c1ccc(C(=C2C=CC(=[N+](C)C)C=C2)c2ccc(N(C)C)cc2)cc1.[Cl-]` [GENTIAN VIOLET], for which the IC50 entry against Thromboxane-A synthase is “Not Active”; on D(3) dopamine receptor (read-out: IC50) it was 831 nM; in test [1] (read-out: IC50), 4070 nM; against Leukotriene C4 synthase it was “Not Active”; in test [2], “Not Active”; on Glucocorticoid receptor, “Not Active”. Also, the results for the Ki (on D(3) dopamine receptor (read-out: Ki); in test [1] (read-out: Ki)) were 282 nM and 3230 nM, respectively.
`CC(=O)Nc1cccc(O)c1` [METACETAMOL]: the IC50 result (at Thromboxane-A synthase; at D(1A) dopamine receptor; at D(3) dopamine receptor (cho); in test [1] (cho-k1); at Leukotriene C4 synthase; in test [2]) was “Not Active” in each case.
As for `Cc1ncc([N+](=O)[O-])n1CCO` [METRONIDAZOLE], the 50% inhibitory concentration (IC50) result (against Thromboxane-A synthase; on D(1A) dopamine receptor; on D(3) dopamine receptor (cho); in test [1] (cho-k1); at Leukotriene C4 synthase; in test [2]) was “Not Active” each time.
Turning to `COc1ccc2cc([C@H](C)C(=O)O)ccc2c1` [NAPROXEN], the half-maximal inhibitory concentration (IC50) entry (against Thromboxane-A synthase; at D(1A) dopamine receptor; at D(3) dopamine receptor (cho); in test [1] (cho-k1); at Leukotriene C4 synthase; in test [2]) was “Not Active” throughout.
As to `CCN[C@@H]1C[C@H](N)[C@@H](O[C@H]2OC(CN)=CC[C@H]2N)[C@H](O)[C@H]1O[C@H]1OC[C@](C)(O)[C@H](NC)[C@H]1O` [NETILMICIN], the IC50 entry (at Thromboxane-A synthase; on D(1A) dopamine receptor; at D(3) dopamine receptor (cho); in test [1] (cho-k1); against Leukotriene C4 synthase; in test [2]) was “Not Active” throughout.
`CCOC(=O)C1=C(C)NC(C)=C(C(=O)OC)C1c1cccc([N+](=O)[O-])c1` (configuration not stated) [NITRENDIPINE]: the IC50 result (at Thromboxane-A synthase; on D(1A) dopamine receptor; at D(3) dopamine receptor (cho); in test [1] (cho-k1); against Leukotriene C4 synthase; in test [2]) was “Not Active” throughout.
On to `C#C[C@]1(OC(C)=O)CC[C@H]2[C@@H]3CCC4=CC(=O)CC[C@@H]4[C@H]3CC[C@@]21C` [NORETHINDRONE ACETATE], for which the IC50 result (at Thromboxane-A synthase; on D(1A) dopamine receptor; at D(3) dopamine receptor (cho); in test [1] (cho-k1); against Leukotriene C4 synthase; in test [2]) was “Not Active” throughout.
As to `COc1ccc2[nH]c([S+]([O-])Cc3ncc(C)c(OC)c3C)nc2c1` (configuration not stated) [OMEPRAZOLE], the 50% inhibitory concentration (IC50) entry (on Thromboxane-A synthase; at D(1A) dopamine receptor; at D(3) dopamine receptor (cho); in test [1] (cho-k1); on Leukotriene C4 synthase; in test [2]) was “Not Active” each time.
Regarding `CCCCOc1ccc(OCCCN2CCOCC2)cc1` [PRAMOXINE], the IC50 result (against Thromboxane-A synthase; on D(1A) dopamine receptor; on D(3) dopamine receptor (cho); in test [1] (cho-k1); on Leukotriene C4 synthase; in test [2]) was “Not Active” each time.
Turning to `CCN(CC)CCOC(=O)c1ccc(N)cc1` [PROCAINE], the IC50 entry (against Thromboxane-A synthase; on D(1A) dopamine receptor; at D(3) dopamine receptor (cho); in test [1] (cho-k1); against Leukotriene C4 synthase; in test [2]) was “Not Active” throughout.
Take `OC(CCN1CCCCC1)(c1ccccc1)C1CCCCC1` (configuration not stated) [TRIHEXYPHENIDYL]: the IC50 result (at Thromboxane-A synthase; at D(1A) dopamine receptor; at D(3) dopamine receptor (cho); in test [1] (cho-k1); against Leukotriene C4 synthase; in test [2]) was “Not Active” each time.
`Cc1cc2cc3c(C)cc(=O)oc3c(C)c2o1` [TRIOXSALEN]: the IC50 entry (against Thromboxane-A synthase; at D(1A) dopamine receptor; on D(3) dopamine receptor (cho); in test [1] (cho-k1); against Leukotriene C4 synthase; in test [2]) was “Not Active” throughout.
